Data taken from article PMC4523242 (Antiviral Research, 2014).
Read-outs that look alike come from different tables or passages of the source.

Legend:
[1] = system: DENV2 replicon; test: DENV2 Rluc reporter replicon inhibition assay in BHK-21/DENV2 cells; format: cell-based, Dengue virus type 2; conditions: for % replicon inhibition (Means ± SEM) DENV2: 50 μM, 24 h, BHK-21/DENV2 replicon cells; for EC50: Dengue virus
[2] = system: WNV replicon; test: WNV Rluc reporter replicon inhibition assay in Vero/WNV cells; format: cell-based, West Nile virus; conditions: 24 h; for EC50: read-out: WNV replicon EC50; for % replicon inhibition (Means ± SEM) WNV: 50 μM
[3] = system: DENV2; test: DENV2 infectivity in BHK-21 cells, plaque assay of supernatants; format: cell-based, Dengue virus type 2
[4] = system: DENV2; test: Direct plaque assay; format: cell-based, Dengue virus type 2; conditions: MOI of 0.01
[5] = system: DENV2; test: qRT-PCR of intracellular and extracellular DENV2 RNA in infected BHK-21 cells; format: cell-based, Dengue virus type 2; conditions: 5 μM, MOI of 1, 72 h
[6] = molecular target: T1, DENV2 NS2B-NS3 protease (Dengue virus type 2, UniProt P14340); format: biochemical
T1 sequence (P14340 1476-1653 limits assumed): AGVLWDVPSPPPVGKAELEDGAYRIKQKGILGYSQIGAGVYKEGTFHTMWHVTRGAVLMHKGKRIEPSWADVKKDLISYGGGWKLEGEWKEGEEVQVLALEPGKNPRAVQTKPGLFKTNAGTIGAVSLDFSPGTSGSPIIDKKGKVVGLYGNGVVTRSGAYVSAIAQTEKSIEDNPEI
T1 sequence (P14340 1398-1437 limits assumed): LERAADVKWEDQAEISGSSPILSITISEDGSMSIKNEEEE

[7] = molecular target: DENV2 5'-RNA methyltransferase (NS5FL) (Dengue virus type 2, UniProt P14340); format: biochemical
[8] = molecular target: DENV2 NS5 RdRP (Dengue virus type 2, UniProt P14340); test: RNA-dependent RNA polymerase assay; format: biochemical
[9] = molecular target: Renilla luciferase (Rluc) (Renilla reniformis, UniProt P27652); format: biochemical
[10] = Cytotoxicity; conditions: African green monkey, naïve Vero cells
[11] = Viability of replicon expressing cells; conditions: hamster, BHK-21 cells expressing DENV2 replicon
[12] = system: Vero cells; test: Cytotoxicity; conditions: read-out: WNV replicon CC50; Vero cells, 24 h
[13] = system: BHK-21 cells; test: Cytotoxicity; conditions: read-out: DENV2 replicon CC50, 24 h
[14] = DENV2, BHK-21, 24 h, read-out: DENV2 replicon EC50
[15] = Vero/WNV replicon cells, Rluc, initial screening

Chain of Renilla luciferase (Rluc) (P27652 whole entry, looked up): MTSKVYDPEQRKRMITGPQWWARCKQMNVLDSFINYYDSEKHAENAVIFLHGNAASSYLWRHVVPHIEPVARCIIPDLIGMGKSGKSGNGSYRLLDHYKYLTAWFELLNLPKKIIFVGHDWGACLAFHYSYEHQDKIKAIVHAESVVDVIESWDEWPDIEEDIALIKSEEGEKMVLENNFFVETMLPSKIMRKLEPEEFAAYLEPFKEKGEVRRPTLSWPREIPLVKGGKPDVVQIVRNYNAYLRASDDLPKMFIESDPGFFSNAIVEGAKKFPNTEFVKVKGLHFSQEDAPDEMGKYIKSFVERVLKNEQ

CCN(CC)Cc1cc(Nc2ccnc3cc(Cl)ccc23)ccc1O [Compound 1, 4-[(7-chloroquinolin-4-yl)amino]-2(diethylaminomethyl)phenol]
% replicon inhibition (Means ± SEM) DENV2 ([1]; listed as AQ): 76.31 ± 1.60% | EC50 [1, 14]: 10.8 ± 1.43 µM | EC50 ([1]; DENV2, BHK-21, 48 h, read-out: EC50 DENV2 replicon replication): 7.41 ± 1.09 µM | inhibition at 50 µM ([2]; West Nile virus, Vero, read-out: % replicon inhibition (Means ± SEM) WNV, 50 μM, 24 h, Vero/WNV replicon cells): 96.3 ± 0.39% | EC50 ([2]; West Nile virus, Vero): 14.6 ± 2.21 µM | plaque reduction, time of addition assay ([3]; 5 μM added as late as 15 h post-infection, MOI of 1, supernatants at 72 h): ≥ 90% | effect when added late, time of addition assay ([3]; 5 μM added at 21 h post-infection and later, MOI of 1): lost its inhibitory effect | reduction of plaque titer from DMSO control, order of addition assay ([3]; 5 μM added post-infection, MOI of 1, 48 and 72 h post-infection): ≥ 90% | plaque formation reduced (time course) ([3]; 5 μM, MOI of 0.01, up to 96 h): ≥ 90% | stability of AQ in infected cell culture ([3]; concluded from time course of inhibition, 37 °C, post-infection): at least 96 h | effect on DENV2 adsorption ([4]; 5 μM during adsorption only): does not inhibit DENV2 adsorption | virus titer reduction, direct plaque assay ([4]; 10 μM during adsorption only): 69.23 ± 1.57% | virus titer reduction, direct plaque assay ([4]; 25 μM during adsorption only): 82.70 ± 2.48% | intracellular and extracellular DENV2 RNA levels (qRT-PCR) [5]: effectively inhibited DENV2 replication | effect on DENV2 protease [6]: no effect | inhibition of formation of type I cap by NS5FL [7]: did not inhibit | Inhibition of RdRP activity, positive-strand RNA synthesis ([8]; 50 μM, 60 min): 10.58 ± 0.94% | inhibition at 50 µM ([8]; read-out: Inhibition of RdRP activity, negative-strand synthesis): -17.1 ± 4.37% | interference with Rluc enzyme activity [9]: did not interfere | CC50 at 24 h [10]: 24.4 ± 2.49 µM | CC50 at 48 h [11]: 52.1 ± 4.25 µM

Cl.ClCCN(CCCl)c1ccc(CCNc2ccnc3cc(Cl)ccc23)cc1 [Compound 4, Chloroquine ethyl phenyl mustard]
% replicon inhibition (Means ± SEM) DENV2 [1]: > 99% | % replicon inhibition (Means ± SEM) WNV ([2]; Vero/WNV replicon cells): > 99% | EC50 [2, 15]: 1.55 ± 0.4 µM | CC50 [12]: 5.02 ± 1.23 µM | CC50 [13]: 74.1 ± 21.5 µM

CC(CCCN(CCCl)CCCl)Nc1ccnc2cc(Cl)ccc12 (stereo not drawn) [Compound 5, Chloroquine mustard]
% replicon inhibition (Means ± SEM) DENV2 [1]: > 99% | EC50 [1, 14]: 2.9 ± 0.78 µM | % replicon inhibition (Means ± SEM) WNV ([2]; Vero/WNV replicon cells): > 99% | EC50 ([2]; West Nile virus, Vero): 2.95 ± 0.77 µM | CC50 at 24 h [10]: 3.64 ± 0.93 µM

Quinacrine mustard [Compound 9]
% replicon inhibition (Means ± SEM) DENV2 [1]: > 99% | % replicon inhibition (Means ± SEM) WNV ([2]; Vero/WNV replicon cells): > 99% | EC50 [2, 15]: 0.36 ± 0.09 µM | CC50 [12]: 0.97 ± 0.11 µM | CC50 [13]: 2.4 ± 0.63 µM
